Assay results as given in US5491220A, “Surface loop structural analogues of fibroblast growth factors” (Yeda Research and Development Co., Ltd., priority 1994, dated 1996).

Key:
[1] = Affinity for immobilized heparin (NaCl elution from heparin column); format: binding; details: TSK-heparin column
Experimental: Cells from 1 liter cultures are harvested by centrifugation, resuspended in 30 ml of 50 mM Tris-HCl, pH 7.5 containing 0.1 mM EDTA and 0.6M NaCl, and disrupted by treatment with lysozyme (10 μg/ml) for 20 min at 4° C. followed by sonication (6×30 sec pulses). The lysates are clarified by centrifugation (10,000×g; 20 min) and the supernatant solutions incubated with 5 ml of hydrated heparin Sepharose (Pharmacia/LKB) at 4° C. for 1 hour with constant rotation. The resin is isolated by filtration on 0.8 μm filter apparatus (Nalgene), washed extensively with 10 mM Tris-HCl pH 7.4 containing 0.6M NaCl and bound protein eluted with Tris buffer containing 3M NaCl (25 ml). The 3M NaCl eluent is diluted 6-fold with Tris buffer and loaded onto a TSK heparin 5PW column (0.21×15 cm; The Nest Group, MA) and the column developed using a linear NaCl gradient (0.6 to 2M) in 90 min at a flow rate of […].
NaCl elution from heparin-Sepharose® is about 0.7M NaCl, compared with 1.4M NaCl for the wild-type protein. The molarity of NaCl required to elute the LK mutant is similar to that required to elute FGF-7.

FGFR1 = assay: Chemical cross-linking of 125I-FGF to soluble FGFR1; format: binding, murine; details: with and without excess unlabelled FGF
Experimental: (§1) Binding of FGF proteins to different FGF receptors are determined in this example, by measuring the degree of competition for binding to different types of FGF-receptor proteins between a radioiodinated FGF protein and various unlabelled proteins, or by the direct binding of radioiodinated FGF's to various receptor proteins. Binding studies are confirmed by chemical cross-linking of the radioiodinated FGF to soluble receptors in the presence and absence of excess unlabelled FGF.
(§2) Soluble FGF receptor proteins are constructed by cloning of the extracellular region of murine FGF receptor 1 (FGFR-1; flg), FGF receptor 2 (FGFR-2; bek) or the KGF receptor (FGFR(IIIb); K-sam) into the alkaline phosphatase-tag expression vector, which encodes for a secreted form of placental alkaline phosphatase (AP). The FGF receptor alkaline phosphatase (FRAP) plasmids are cotransfected into NIH 3T3 cells by electroporation with a selectable neomycin resistance gene. Clonies are selected in G418 (600 μg/ml) and screened for secreted AP enzyme activity in the conditioned medium. Clones of each receptor which produced a high level of AP activity (2 to 4 A405 units/min/ml) are then used to produce conditioned medium for binding assays.
(§3) Chemical cross-linking experiments are carried out at room temperature in a volume of 20 μl in siliconized 0.5-ml microcentrifuge tubes. The reaction mixtures contain FGF receptor immobilized to anti-AP monoclonal antibodies coupled to protein A Sepharose®, 200 ng/ml heparin, 2 ng/ml^125 I-bFGF, 20 mM phosphate buffer (pH 7.4), and 140 mM NaCl. After a 90 minute incubation, […] of a solution of disuccinimidyl suberate (Pierce) dissolved in dimethyl sulfoxide is added to give a final concentration of 0.15 mM, and the mixture incubated for an additional 30 minutes. The reaction is quenched by addition of […] of 200 mM ethanolamine-HCl (pH 8.0) for 30 min. The reaction mixtures are diluted 1:1 with 2× SDS-polyacrylamide gel electrophoresis loading buffer and electrophoresed on an SDS-12% polyacrylamide gel. Cross-linked FGF to the FGF receptor are detected by autoradiography on Kodak XAR film.

[2] = test system: FGF receptor type 1 (FGFR1); assay: Competition binding to FGF-receptor type 1 on NIH 3T3 cells; details: compared with FGF-2
FGFR2(IIIb) = assay: Chemical cross-linking of 125I-FGF to soluble FGFR2(IIIb); format: binding, murine; details: with and without excess unlabelled FGF
Experimental: as §1, §2, §3

[3] = test system: bovine vascular endothelial cells derived from adult aortic arch; assay: Mitogenic activity, endothelial cell proliferation assay; format: cell-based; details: 5 days in culture
Experimental: The mitogenic activity of FGF-2, FGF-2LI and FGF-2LA are determined using bovine vascular endothelial cells derived from adult aortic arch as previously described (Gospardarowicz, D., et al., Proc. Nat. Acad. Sci. 81: 6963-6967 (1984)). Briefly, cells are seeded at an initial density of 0.8×10^4 cells per 24-well plate in 0.5 ml Dulbecco's modified Eagle's medium (DMEM) containing 10% calf serum (Hyclone, Logan, Utah) supplemented with penicillin (100 units/ml), streptomycin (100 ug/ml) and L-glutamine (2 mM). Two hours after plating, 20 ul aliquots of serial dilutions of FGF-2 and the mutants in DMEM are added. Inhibition of FGF-2-stimulated growth was determined at a fixed concentration of FGF-2, while that of the mutant proteins is varied. After 5 days in culture, duplicate plates are trypsinized and cell densities determined by cell counting in a Coulter counter. Determinations are conducted in duplicate.

neovascularization = assay: In vivo angiogenesis, rabbit ear chamber model
Experimental: In an in vivo model of angiogenesis, FGF-2LI is evaluated using the rabbit ear chamber system modified and improved by Howden, G. F., and Silver, I. A., (Int. Endodontic J. 13: 3-16 (1980)), observing the growth factor-induced neovascularization, or its inhibition, by modified growth factors or other reagents.
Rabbits are sedated using 50-70 mg/kg ketamine and 10 mg/kg xylozine administered intramuscularly. The ears are shaved with an electric hair clipper and cleaned with water, followed by Betadine®. To minimize the risk of infection, the rabbits are given 20,000 units/kg benzathine penicillin intramuscularly prior to insertion of the ear chambers. The chamber is inserted into an approximately 0.75 cm area which is not crossed by any major vessels. During the course of the experiments, observations or any minor handling of ear chambers of the animals is done by sedating the animal using the intramuscular administration of a combination of Butorphanol® and acepromazine at levels of 1 mg/kg each. FGF-2 or FGF-2LI bound to heparin-Sepharose® beads in a controlled-release alginate capsule is contained in one of the ear chambers and the other is used as a control containing only the heparin-Sepharose® alginate capsule vehicle. Thus, the effect of the growth factors and the controlled-release capsule alone can be observed simultaneously in the same animal. […] The animals are kept for 4 to 6 weeks and neovascularization is observed visually and recorded photographically at weekly intervals.
The criteria for evaluation of the degree of neovascularization using this procedure is set out below.

Substance | NaCl concentration at elution from TSK-heparin column [1] | Cross-linking to FGFR1 (FGFR1) | Competition binding curve to FGF receptor type 1 on NIH 3T3 cells [2] | Cross-linking to FGFR2(IIIb) (FGFR2(IIIb)) | Mitogenic potency compared with wild-type factor [3] | Angiogenesis at 400 ng/chamber (neovascularization; 400 ng/chamber) | Concentration range over which stimulatory activity is observed (neovascularization; rabbit ear chamber) | Potential to induce angiogenesis (neovascularization) (neovascularization; rabbit ear chamber, controlled-release alginate capsule) | Vessel formation in the chamber (neovascularization; rabbit ear chamber, versus control chambers) | Mitogenic potency, times less potent than FGF-2 [3] [times]
FGF-2LA: human FGF-2 with loop residues 118-122 replaced by Lys-Lys-His-Ala-Glu-Lys-His from bovine FGF-1 (SEQ ID NO 16) (KKHAEKH; printed: Lys-Lys-His-Ala-Glu-Lys-His) | about 1.5 M | bind | identical to that for FGF-2 | bind | as potent as the wild-type factor |  |  |  |  | 
FGF-2LI: human FGF-2 with loop residues 118-122 replaced by Ala-Gln-Phe-Pro-Asn from human interleukin-1β (SEQ ID NO 15) | about 1.5 M | bind | identical to that for FGF-2 | excluded from binding |  | greatly stimulates formation of capillaries and larger vessels | 0.1-400 ng/chamber | superior to FGF-2 | stimulate large vessel formation | 5 to 10
